Reference: ChEMBL document CHEMBL5131520, “Synthesis and Antitumor Activity of Diosgenin Hydroxamic Acid and Quaternary Phosphonium Salt Derivatives” (ACS Med Chem Lett, 2022)
Where a name gives a salt, the structure may show the parent alone.

Columns and labels:
ASPC1 = assay: Antiproliferative activity against human ASPC1 cells assessed as inhibition of cell growth incubated for 48 hrs by CCK8 assay; type: functional, cell-based; conditions: ASPC1, 48 h
NCI-H358 = assay: Antiproliferative activity against human NCI-H358 cells assessed as inhibition of cell growth incubated for 48 hrs by CCK8 assay; type: functional, cell-based; conditions: NCI-H358, 48 h
HCT-116 = assay: Antiproliferative activity against human HCT-116 cells assessed as inhibition of cell growth incubated for 48 hrs by CCK8 assay; type: functional, cell-based; conditions: HCT-116, 48 h
SW-620 = assay: Antiproliferative activity against human SW-620 cells assessed as inhibition of cell growth incubated for 48 hrs by CCK8 assay; type: functional, cell-based; conditions: SW-620, 48 h
[1] = Water solubility of compound; type: physicochemical; conditions: buffer

Compound | IC50 (ASPC1) | IC50 (NCI-H358) | IC50 (HCT-116) | IC50 (SW-620) | solubility [1]
C[C@@H]1CC[C@@]2(OC1)O[C@H]1C[C@H]3[C@@H]4CC=C5C[C@@H](OC(=O)c6cccc(C(=O)NO)c6)CC[C@]5(C)[C@H]4CC[C@]3(C)[C@H]1[C@@H]2C | 4.96 µM | 9.54 µM | 34.4 µM | 6.8 µM | Soluble
C[C@@H]1CC[C@@]2(OC1)O[C@H]1C[C@H]3[C@@H]4CC=C5C[C@@H](OC(=O)CCCC[P+](c6ccccc6)(c6ccccc6)C6CCCCC6)CC[C@]5(C)[C@H]4CC[C@]3(C)[C@H]1[C@@H]2C.[Br-] | 0.313 µM | 3.52 µM | 4.15 µM | 0.873 µM | Soluble
C[C@@H]1CC[C@@]2(OC1)O[C@H]1C[C@H]3[C@@H]4CC=C5C[C@@H](OC(=O)CCCC[P+](c6ccccc6)(c6ccccc6)c6cccc(-c7ccccc7)c6)CC[C@]5(C)[C@H]4CC[C@]3(C)[C@H]1[C@@H]2C.[Br-] | 0.29 µM | 3.66 µM | 4.22 µM | 1.16 µM | Soluble
C[C@@H]1CC[C@@]2(OC1)O[C@H]1C[C@H]3[C@@H]4CC=C5C[C@@H](OC(=O)c6nccnc6C(=O)NO)CC[C@]5(C)[C@H]4CC[C@]3(C)[C@H]1[C@@H]2C | 9.29 µM | 35.5 µM | 35.8 µM | > 40 µM | Soluble
C[C@@H]1CC[C@@]2(OC1)O[C@H]1C[C@H]3[C@@H]4CC=C5C[C@@H](OC(=O)/C=C/C(=O)NO)CC[C@]5(C)[C@H]4CC[C@]3(C)[C@H]1[C@@H]2C | 11.4 µM | 36.8 µM | 39 µM | 16.9 µM | Soluble
C[C@@H]1CC[C@@]2(OC1)O[C@H]1C[C@H]3[C@@H]4CC=C5C[C@@H](OC(=O)CCCC[P+](C6CCCCC6)(C6CCCCC6)C6CCCCC6)CC[C@]5(C)[C@H]4CC[C@]3(C)[C@H]1[C@@H]2C.[Br-] | 0.185 µM | 4.04 µM | 4 µM | 0.448 µM | Soluble
CCCC[P+](CCCC)(CCCC)CCCCC(=O)O[C@H]1CC[C@@]2(C)C(=CC[C@H]3[C@@H]4C[C@@H]5O[C@]6(CC[C@@H](C)CO6)[C@@H](C)[C@@H]5[C@@]4(C)CC[C@@H]32)C1.[Br-] | 1.09 µM | 2.18 µM | 3.99 µM | 1.17 µM | Soluble
C[C@@H]1CC[C@@]2(OC1)O[C@H]1C[C@H]3[C@@H]4CC=C5C[C@@H](OC(=O)CCCC[P+](c6ccc(Cl)cc6)(c6ccc(Cl)cc6)c6ccc(Cl)cc6)CC[C@]5(C)[C@H]4CC[C@]3(C)[C@H]1[C@@H]2C.[Br-] | 0.652 µM | 1.71 µM | 4.32 µM | 6.8 µM | Soluble
Cc1cc(C(=O)NO)cc(C(=O)O[C@H]2CC[C@@]3(C)C(=CC[C@H]4[C@@H]5C[C@@H]6O[C@]7(CC[C@@H](C)CO7)[C@@H](C)[C@@H]6[C@@]5(C)CC[C@@H]43)C2)c1 | 7.8 µM | 15.2 µM | 32.8 µM | 10.7 µM | Soluble
C[C@@H]1CC[C@@]2(OC1)O[C@H]1C[C@H]3[C@@H]4CC=C5C[C@@H](OC(=O)CCCC(=O)NO)CC[C@]5(C)[C@H]4CC[C@]3(C)[C@H]1[C@@H]2C | 2.14 µM | 4.32 µM | 32.5 µM | 2.43 µM | Soluble
C[C@@H]1CC[C@@]2(OC1)O[C@H]1C[C@H]3[C@@H]4CC=C5C[C@@H](OC(=O)CCCCC(=O)NO)CC[C@]5(C)[C@H]4CC[C@]3(C)[C@H]1[C@@H]2C | 2.31 µM | 12.6 µM | 38.8 µM | 1.92 µM | Soluble
C[C@@H]1CC[C@@]2(OC1)O[C@H]1C[C@H]3[C@@H]4CC=C5C[C@@H](OC(=O)CCCC[P+](c6ccccc6)(c6ccccc6)c6ccccn6)CC[C@]5(C)[C@H]4CC[C@]3(C)[C@H]1[C@@H]2C.[Br-] | 0.648 µM | 3.54 µM | 4.25 µM | 0.778 µM | Soluble
C[C@@H]1CC[C@@]2(OC1)O[C@H]1C[C@H]3[C@@H]4CC=C5C[C@@H](OC(=O)CCC(=O)NO)CC[C@]5(C)[C@H]4CC[C@]3(C)[C@H]1[C@@H]2C | 7.99 µM | 7.47 µM | 31.8 µM | 5.22 µM | Soluble
C[C@@H]1CC[C@@]2(OC1)O[C@H]1C[C@H]3[C@@H]4CC=C5C[C@@H](OC(=O)CCCC[P+](c6ccc(F)cc6)(c6ccc(F)cc6)c6ccc(F)cc6)CC[C@]5(C)[C@H]4CC[C@]3(C)[C@H]1[C@@H]2C.[Br-] | 0.728 µM | 3.82 µM | 4.16 µM | 1.42 µM | Soluble
C[C@@H]1CC[C@@]2(OC1)O[C@H]1C[C@H]3[C@@H]4CC=C5C[C@@H](OC(=O)CCCCCCC(=O)NO)CC[C@]5(C)[C@H]4CC[C@]3(C)[C@H]1[C@@H]2C | 22.9 µM | 23.1 µM | > 40 µM | 11.1 µM | Soluble
C[C@@H]1CC[C@@]2(OC1)O[C@H]1C[C@H]3[C@@H]4CC=C5C[C@@H](OC(=O)CCCC[P+](C)(C)C)CC[C@]5(C)[C@H]4CC[C@]3(C)[C@H]1[C@@H]2C.[Br-] | 7.44 µM | 13.6 µM | 10.1 µM | 9.59 µM | Soluble
CCCCCCCC[P+](CCCCCCCC)(CCCCCCCC)CCCCC(=O)O[C@H]1CC[C@@]2(C)C(=CC[C@H]3[C@@H]4C[C@@H]5O[C@]6(CC[C@@H](C)CO6)[C@@H](C)[C@@H]5[C@@]4(C)CC[C@@H]32)C1.[Br-] | 7.63 µM | 27.1 µM | 31.4 µM | 29 µM | Soluble
CC[P+](CC)(CC)CCCCC(=O)O[C@H]1CC[C@@]2(C)C(=CC[C@H]3[C@@H]4C[C@@H]5O[C@]6(CC[C@@H](C)CO6)[C@@H](C)[C@@H]5[C@@]4(C)CC[C@@H]32)C1.[Br-] | 2.62 µM | 3.51 µM | 5 µM | 4.39 µM | Soluble
C[C@@H]1CC[C@@]2(OC1)O[C@H]1C[C@H]3[C@@H]4CC=C5C[C@@H](OC(=O)CCCCCCCCC(=O)NO)CC[C@]5(C)[C@H]4CC[C@]3(C)[C@H]1[C@@H]2C | 15 µM | 10.4 µM | 33.4 µM | 23.4 µM | Soluble
C[C@@H]1CC[C@@]2(OC1)O[C@H]1C[C@H]3[C@@H]4CC=C5C[C@@H](O)CC[C@]5(C)[C@H]4CC[C@]3(C)[C@H]1[C@@H]2C [DISOGENIN] | 63.1 µM | > 40 µM | 31.4 µM | > 40 µM | –
COc1cccc2c1C(=O)c1c(O)c3c(c(O)c1C2=O)C[C@@](O)(C(=O)CO)C[C@@H]3O[C@H]1C[C@H](N)[C@H](O)[C@H](C)O1 [DOXORUBICIN HYDROCHLORIDE] | < 5 µM | < 5 µM | > 1.25 µM | < 5 µM | –
